Assay results reported in PMC11952234, “Functional profiling of synthetic camel milk-derived peptides with implication in glucose transport and diabetes” (PLOS One, 2025).
Marks after values point to notes of the source that are not given here.

Columns and labels:
[1] = molecular target: T1, insulin receptor (IR); interaction of IR-Rluc with IRS1-YFP in HEK293 cells (Homo sapiens, UniProt P06213); test: BRET assay of IR activation (IR-Rluc/IRS1-YFP), single treatment, dose-response; assay type: cell-based; settings: for BRET, % of the maximal response of insulin, Average: HEK293, 1 hour, minimal data set for Figure 1, average
T1 construct: expressed in transfected cells; host or cells: HEK293 cells, transient co-transfection; plasmids provided by Dr. Tarik Issad (Cochin Institute, Paris)
Description: (§1) HepG2 and HEK293 cells were maintained at 37°C, 5% CO2 in complete RPMI and Dulbecco’s modified Eagle’s medium (DMEM), respectively, containing 0.3 mg/ml glutamine, 100 IU/ml penicillin, and 100 µg/ml streptomycin) supplemented with 10% fetal calf serum (Gibco, Carlsbad, CA, USA). The transient transfection in HEK293 cells was carried out in 75 cm flask containing 10^7 cells using Lipofectamine 2000 and 5 µg of IR-Rluc and 5 µg of IRS1-YFP (for BRET and phosphorylation experiments) as previously described. All assays were performed 48 hours post-transfection.
(§2) BRET technology was used for IR activation and its interaction with IRS1 as previously described. […] Following treatments, 10 μl of Coelenterazine h was added to a final concentration of 5 µ M and BRET measurements were carried out using the Tristar 2 multi-label plate reader (Berthold, Germany), allowing luminescence recording and signal integration at 480 nm and 540 nm.
(§3) Statistical analyses were performed statistical significance between the different treatments and conditions as indicated in the figures and tables and their captions. […] The significance is indicated in the figures by stars (****p-value < 0.0001, ***p-value < 0.001, ** p-value < 0.01, * p-value < 0.05), and the absence of stars means non-significant (p-value > 0.05). However, the two-way ANOVA was used for multiple comparisons to determine the statistical significance between the different peptides when compared to each other in the different assays as described in the tables.

[2] = system: insulin receptor (IR); insulin-induced IR-Rluc/IRS1-YFP BRET in HEK293 cells; test: BRET assay of IR activation, peptides combined with insulin; assay type: cell-based, human
Description: as §1, §2
as §3, with “For BRET, the data were normalized by taking as 100% of the maximal insulin-induced BRET signal in the vehicle and analyzed using GraphPad Prism software (San Diego, CA, USA). Statistical” for “Statistical”, “tables. In this case, the different letters indicate statistically significant effects (p-value < 0.05), while the same letters indicate no significant difference between the different treatments compared to each other.” for “tables.”

[3] = system: IR phosphorylation (pIR-Tyr1334) in HepG2 cells; test: IR phosphorylation by western blot in HepG2 cells; assay type: cell-based, human; settings: 0.1 mg/ml peptide, 10 minutes, 37°C, 3 independent experiments
Description: (§4) Following treatment, cells were then lysed with RIPA lysis buffer and thereafter centrifuged at 12000 × g for 30 minutes. Thereafter, the extracted cell lysate proteins were quantified using the bicinchoninic acid (BCA) protein assay. To examine the phosphorylation status of IR and AKT, 30-40 μg of proteins were loaded on 10% SDS-PAGE gel followed by western blot using the following antibodies: the mouse monoclonal anti-phospho-IR (pIR-Tyr1334)(1:1000 dilution) and the mouse monoclonal anti-phospho-AKT (pAKT-S473)(1:2000 dilution) as previously described. The corresponding total proteins loaded were also analyzed in parallel using the specific antibodies against the native forms of the different proteins. Densitometry analysis of the different western blots was performed using Image Studio Version 5.2 software from LICOR (Lincoln, Nebraska, USA).

[4] = system: AKT phosphorylation (pAKT-S473) in HepG2 cells; test: AKT phosphorylation by western blot in HepG2 cells; assay type: cell-based, human; settings: 0.1 mg/ml peptide, 10 minutes, 37°C, 3 independent experiments
Description: as §4

HepG2 cells = test: Glucose uptake assay (Glucose Uptake-Glo) in HepG2 cells; assay type: cell-based, human; settings: 1 hour, 37°C
Description: Glucose uptake in HepG2 cells was carried out using Glucose Uptake-Glo Assay (Promega). For this, cells seeded in a 96-well white plate (50,000 cells/well) were first washed with PBS and starved in phenol red-, glucose-, and serum-free medium (Dulbecco’s modified Eagle’s medium containing 0.01 mM HEPES, 0.3 mg/ml glutamine, 100 IU/ml penicillin, and 100 µg/ml streptomycin). […] The treatment was removed, and the cells were washed once with PBS and then incubated with 50 μL/well of freshly prepared 2-deoxyglucose (500 μM) for 10 minutes at room temperature. The uptake process was stopped and neutralized, followed by the addition of 50 μl/well of 2-deoxyglucose-6-phosphate (2DG6P) detection reagent and incubation for 15-60 minutes at room temperature. The glucose-6-phosphate dehydrogenase (G6PDH) oxidizes 2DG6P to 6-phosphodeoxygluconate (6PDG) and reduces NADP + to NADPH. The reductase uses NADPH to convert the proluciferin to luciferin, which is then used by Ultra-Glo™ recombinant luciferase to produce luminescence. This luminescence, proportional to the amount of 2-deoxyglucose transported inside the cells upon treatment, was then measured using a 0.3–1 second integration on GloMax® Discover luminometer according to Glucose Uptake-Glo™ protocol.

T1 sequence (P06213 28-758 limits assumed): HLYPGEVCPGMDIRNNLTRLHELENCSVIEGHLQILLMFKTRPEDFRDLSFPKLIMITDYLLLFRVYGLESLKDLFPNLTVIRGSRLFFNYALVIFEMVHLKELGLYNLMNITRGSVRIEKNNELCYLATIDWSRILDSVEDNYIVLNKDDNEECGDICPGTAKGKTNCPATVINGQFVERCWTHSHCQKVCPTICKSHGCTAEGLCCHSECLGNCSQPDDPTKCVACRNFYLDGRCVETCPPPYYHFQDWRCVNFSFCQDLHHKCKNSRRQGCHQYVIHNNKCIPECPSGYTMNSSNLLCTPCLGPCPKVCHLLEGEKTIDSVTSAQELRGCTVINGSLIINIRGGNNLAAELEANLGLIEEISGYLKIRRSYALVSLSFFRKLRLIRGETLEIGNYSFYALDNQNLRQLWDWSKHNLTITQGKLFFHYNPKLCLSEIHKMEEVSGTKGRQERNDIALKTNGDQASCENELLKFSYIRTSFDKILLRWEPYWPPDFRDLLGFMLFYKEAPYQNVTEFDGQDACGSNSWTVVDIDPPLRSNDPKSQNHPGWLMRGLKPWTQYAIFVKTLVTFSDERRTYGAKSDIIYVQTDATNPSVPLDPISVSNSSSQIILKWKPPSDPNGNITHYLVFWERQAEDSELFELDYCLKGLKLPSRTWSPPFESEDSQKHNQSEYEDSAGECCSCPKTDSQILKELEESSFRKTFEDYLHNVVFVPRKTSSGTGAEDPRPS
T1 sequence (P06213 763-1382 limits assumed): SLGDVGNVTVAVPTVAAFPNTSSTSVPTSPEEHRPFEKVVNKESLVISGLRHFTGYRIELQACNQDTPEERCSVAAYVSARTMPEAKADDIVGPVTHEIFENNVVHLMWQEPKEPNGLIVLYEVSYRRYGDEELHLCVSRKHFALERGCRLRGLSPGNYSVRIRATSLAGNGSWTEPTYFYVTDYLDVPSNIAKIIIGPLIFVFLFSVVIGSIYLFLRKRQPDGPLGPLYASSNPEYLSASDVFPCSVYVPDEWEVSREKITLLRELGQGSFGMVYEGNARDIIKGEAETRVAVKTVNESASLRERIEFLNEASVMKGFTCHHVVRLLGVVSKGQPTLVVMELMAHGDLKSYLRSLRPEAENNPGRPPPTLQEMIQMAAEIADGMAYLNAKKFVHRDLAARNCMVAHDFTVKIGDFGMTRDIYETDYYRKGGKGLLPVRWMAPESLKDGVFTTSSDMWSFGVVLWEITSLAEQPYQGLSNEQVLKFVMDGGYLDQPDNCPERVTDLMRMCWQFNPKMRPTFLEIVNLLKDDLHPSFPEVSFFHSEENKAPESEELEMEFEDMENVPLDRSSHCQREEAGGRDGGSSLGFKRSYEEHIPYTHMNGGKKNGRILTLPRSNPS

% of maximal BRET ([1]; HEK293 cells co-expressing IR-Rluc and IRS1-YFP, single treatment 60 min, 37°C, maximal BRET increase of dose-response, % of insulin's response taken as 100%, mean ± SD of four independent experiments in triplicate): 13 ± 1^c %
BRET, % of the maximal response of insulin, Average ([1]; peptide 0.001 mg/ml, 37°C): 10.7
BRET, % of the maximal response of insulin, Average ([1]; peptide 0.005 mg/ml, 37°C): 9.6
BRET, % of the maximal response of insulin, Average ([1]; peptide 0.01 mg/ml, 37°C): 15.8
BRET, % of the maximal response of insulin, Average ([1]; peptide 0.05 mg/ml, 37°C): 14.2
BRET, % of the maximal response of insulin, Average ([1]; peptide 0.1 mg/ml, 37°C): 10.1
BRET, % of the maximal response of insulin, Average ([1]; peptide 0.5 mg/ml, 37°C): 15.2
BRET, % of the maximal response of insulin, Average ([1]; peptide 1 mg/ml, 37°C): 10.9
Substance: MPVQA [Peptide P4]
BRET increase in single treatment (in words) ([1]; HEK293 cells, peptides applied alone): did not promote any significant BRET increase
insulin-induced BRET, % of insulin's response in the vehicle, Average ([2]; Average of Experiments 1-7, 1 μM insulin + 0.1 mg/ml peptide, HEK293, minimal data set for Figure 2): 113.5
insulin-induced BRET, % of insulin's response in the vehicle ([2]; Experiment 1, 1 μM insulin + 0.1 mg/ml peptide, HEK293, minimal data set for Figure 2): 76.2
insulin-induced BRET, % of insulin's response in the vehicle ([2]; Experiment 2, 1 μM insulin + 0.1 mg/ml peptide, HEK293, minimal data set for Figure 2): 79.6
insulin-induced BRET, % of insulin's response in the vehicle ([2]; Experiment 3, 1 μM insulin + 0.1 mg/ml peptide, HEK293, minimal data set for Figure 2): 121.9
insulin-induced BRET, % of insulin's response in the vehicle ([2]; Experiment 4, 1 μM insulin + 0.1 mg/ml peptide, HEK293, minimal data set for Figure 2): 113.1
insulin-induced BRET, % of insulin's response in the vehicle ([2]; Experiment 5, 1 μM insulin + 0.1 mg/ml peptide, HEK293, minimal data set for Figure 2): 93.8
insulin-induced BRET, % of insulin's response in the vehicle ([2]; Experiment 6, 1 μM insulin + 0.1 mg/ml peptide, HEK293, minimal data set for Figure 2): 168.9
insulin-induced BRET, % of insulin's response in the vehicle ([2]; Experiment 7, 1 μM insulin + 0.1 mg/ml peptide, HEK293, minimal data set for Figure 2): 141.2
% of maximal BRET (insulin-induced) ([2]; HEK293 cells, 1 μM insulin + 0.1 mg/ml peptide, 1 hour, 37°C, % of insulin's response in the vehicle taken as 100%, mean ± SD of five to seven independent experiments in triplicate): 114 ± 13^a %
profile on insulin-dependent BRET response in combined treatment (in words) ([2]; HEK293 cells, 0.1 mg/ml peptide + 1 μM insulin, compared to insulin alone (Vehicle)): non-efficient
IR phosphorylation, single treatment (in words) [3]: led to IR and AKT phosphorylation
AKT phosphorylation, single treatment (in words) [4]: led to IR and AKT phosphorylation
glucose uptake, specific luminescence signal, Average (HepG2 cells; Average of Experiments 1-5, HepG2, 0.1 mg/ml peptide or 1 μM insulin, minimal data set for Figure 5): 1978100
% of glucose uptake (HepG2 cells; HepG2 cells, 0.1 mg/ml peptide or 1 μM insulin, % of insulin's response taken as 100%, mean ± SD of five independent experiments in triplicate): 78 ± 18^b %
